Laboratory results from patent US12365696B2, “Small-molecule focal adhesion kinase (FAK) inhibitors” (DANA-FARBER CANCER INSTITUTE, INC., priority 2019, dated 2025).

Tests used:
Experiment in all cases: KINOMEscan
Assay type in all cases: binding
[1] = molecular target: p38-delta (Homo sapiens (Human), UniProt O15264); conditions: 10000 nM, read-out: Percent Control
[2] = molecular target: TNK2 (Homo sapiens (Human), UniProt Q07912); conditions: TNK2, 10000 nM; read-out: Percent Control
[3] = molecular target: CDK3 (Homo sapiens (Human), UniProt Q00526); conditions: CDK3, 10000 nM; read-out: Percent Control
[4] = molecular target: YSK1 (Homo sapiens (Human), UniProt O00506); conditions: YSK1, 10000 nM; read-out: Percent Control
[5] = molecular target: RET (Homo sapiens (Human), UniProt P07949); conditions: 10000 nM, read-out: Percent Control
[6] = molecular target: NEK6 (Homo sapiens (Human), UniProt Q9HC98); conditions: NEK6, 10000 nM; read-out: Percent Control
Sequence of NEK6 (Q9HC98 whole entry): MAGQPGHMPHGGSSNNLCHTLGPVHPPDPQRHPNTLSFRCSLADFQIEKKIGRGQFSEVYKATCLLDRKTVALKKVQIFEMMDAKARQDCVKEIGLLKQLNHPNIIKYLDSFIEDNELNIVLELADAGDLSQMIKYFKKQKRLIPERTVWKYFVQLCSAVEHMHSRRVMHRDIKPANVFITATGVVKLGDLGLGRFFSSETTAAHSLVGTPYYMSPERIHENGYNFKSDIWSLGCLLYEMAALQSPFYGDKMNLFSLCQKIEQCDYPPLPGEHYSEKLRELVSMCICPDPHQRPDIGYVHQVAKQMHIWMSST

[7] = molecular target: ACVR1B (Homo sapiens (Human), UniProt P36896); conditions: 10000 nM, read-out: Percent Control
[8] = molecular target: RIPK1 (Homo sapiens (Human), UniProt Q13546); conditions: RIPK1, 10000 nM; read-out: Percent Control
[9] = molecular target: PIP5K2C (Homo sapiens (Human), UniProt Q8TBX8); conditions: 10000 nM, read-out: Percent Control
[10] = molecular target: ACVR1 (Homo sapiens (Human), UniProt Q04771); conditions: ACVR1, 10000 nM; read-out: Percent Control
[11] = molecular target: YANK2 (Homo sapiens (Human), UniProt Q9NY57); conditions: YANK2, 10000 nM; read-out: Percent Control
[12] = molecular target: YANK1 (Homo sapiens (Human), UniProt Q8WU08); conditions: YANK1, 10000 nM; read-out: Percent Control
[13] = molecular target: YES (Homo sapiens (Human), UniProt P07947); conditions: 10000 nM, read-out: Percent Control
[14] = molecular target: PIK3CA(C420R) (Homo sapiens (Human), UniProt P42336, C420R); conditions: 10000 nM, read-out: Percent Control
Sequence of PIK3CA(C420R) (P42336 whole entry C420R): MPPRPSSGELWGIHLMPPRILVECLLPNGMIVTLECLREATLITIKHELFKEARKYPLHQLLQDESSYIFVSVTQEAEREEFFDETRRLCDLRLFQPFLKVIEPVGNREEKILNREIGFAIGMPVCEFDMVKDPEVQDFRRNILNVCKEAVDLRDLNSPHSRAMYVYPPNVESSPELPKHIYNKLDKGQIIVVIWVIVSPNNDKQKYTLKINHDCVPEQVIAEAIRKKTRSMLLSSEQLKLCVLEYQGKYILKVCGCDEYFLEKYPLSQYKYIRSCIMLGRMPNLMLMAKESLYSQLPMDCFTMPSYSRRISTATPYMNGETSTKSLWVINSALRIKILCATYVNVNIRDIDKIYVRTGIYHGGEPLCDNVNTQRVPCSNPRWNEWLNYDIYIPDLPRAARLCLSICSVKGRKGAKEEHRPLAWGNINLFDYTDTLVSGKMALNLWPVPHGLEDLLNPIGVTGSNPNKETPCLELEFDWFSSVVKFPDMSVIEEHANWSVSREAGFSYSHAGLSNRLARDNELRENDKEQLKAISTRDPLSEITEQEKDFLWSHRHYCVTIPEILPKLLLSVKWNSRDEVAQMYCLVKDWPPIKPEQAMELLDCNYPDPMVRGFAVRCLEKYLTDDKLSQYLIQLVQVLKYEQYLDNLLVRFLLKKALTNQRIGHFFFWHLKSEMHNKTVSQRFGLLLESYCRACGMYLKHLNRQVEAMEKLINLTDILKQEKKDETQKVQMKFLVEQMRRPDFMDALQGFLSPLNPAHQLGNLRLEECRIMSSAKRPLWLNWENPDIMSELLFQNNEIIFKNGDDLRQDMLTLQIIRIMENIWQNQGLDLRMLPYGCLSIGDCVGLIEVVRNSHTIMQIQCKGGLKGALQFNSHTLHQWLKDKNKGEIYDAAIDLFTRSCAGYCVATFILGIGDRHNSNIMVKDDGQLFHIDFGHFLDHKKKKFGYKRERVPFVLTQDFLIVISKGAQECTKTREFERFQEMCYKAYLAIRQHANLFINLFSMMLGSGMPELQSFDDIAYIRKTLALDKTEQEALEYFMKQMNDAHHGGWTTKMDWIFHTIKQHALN

[15] = molecular target: MLCK (Homo sapiens (Human), UniProt Q32MK0); conditions: 10000 nM, read-out: Percent Control
Sequence of MLCK (Q32MK0 whole entry): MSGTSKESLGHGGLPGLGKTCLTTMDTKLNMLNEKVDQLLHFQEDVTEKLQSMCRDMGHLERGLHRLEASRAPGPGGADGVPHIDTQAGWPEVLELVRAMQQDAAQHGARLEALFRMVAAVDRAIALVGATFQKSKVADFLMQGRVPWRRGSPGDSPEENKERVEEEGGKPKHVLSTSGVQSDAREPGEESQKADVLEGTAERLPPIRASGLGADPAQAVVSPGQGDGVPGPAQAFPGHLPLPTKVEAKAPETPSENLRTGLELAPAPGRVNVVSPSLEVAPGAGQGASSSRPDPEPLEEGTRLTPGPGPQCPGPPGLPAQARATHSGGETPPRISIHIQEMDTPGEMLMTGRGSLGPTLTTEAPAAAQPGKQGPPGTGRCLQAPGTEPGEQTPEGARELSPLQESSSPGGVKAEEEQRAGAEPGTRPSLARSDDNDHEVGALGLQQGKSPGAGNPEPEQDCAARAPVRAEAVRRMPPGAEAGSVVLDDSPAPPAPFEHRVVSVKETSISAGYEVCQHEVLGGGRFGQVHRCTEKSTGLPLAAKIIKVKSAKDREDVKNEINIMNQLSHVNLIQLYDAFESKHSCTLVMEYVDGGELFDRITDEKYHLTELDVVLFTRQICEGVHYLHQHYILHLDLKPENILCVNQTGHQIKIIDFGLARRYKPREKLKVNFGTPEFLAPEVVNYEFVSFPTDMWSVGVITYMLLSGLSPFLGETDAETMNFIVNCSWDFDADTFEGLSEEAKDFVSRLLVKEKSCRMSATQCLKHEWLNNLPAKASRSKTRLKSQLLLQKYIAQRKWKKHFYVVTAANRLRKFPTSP

[16] = molecular target: KIT(V559D, T670I) (Homo sapiens (Human), UniProt P10721, T670I/V559D); conditions: 10000 nM, read-out: Percent Control
[17] = molecular target: GAK (Homo sapiens (Human), UniProt O14976); conditions: 10000 nM, read-out: Percent Control
[18] = molecular target: MKK7 (Homo sapiens (Human), UniProt O14733); conditions: MKK7, 10000 nM; read-out: Percent Control
[19] = molecular target: PRKD2 (Homo sapiens (Human), UniProt Q9BZL6); conditions: PRKD2, 10000 nM; read-out: Percent Control
Sequence of PRKD2 (Q9BZL6 whole entry): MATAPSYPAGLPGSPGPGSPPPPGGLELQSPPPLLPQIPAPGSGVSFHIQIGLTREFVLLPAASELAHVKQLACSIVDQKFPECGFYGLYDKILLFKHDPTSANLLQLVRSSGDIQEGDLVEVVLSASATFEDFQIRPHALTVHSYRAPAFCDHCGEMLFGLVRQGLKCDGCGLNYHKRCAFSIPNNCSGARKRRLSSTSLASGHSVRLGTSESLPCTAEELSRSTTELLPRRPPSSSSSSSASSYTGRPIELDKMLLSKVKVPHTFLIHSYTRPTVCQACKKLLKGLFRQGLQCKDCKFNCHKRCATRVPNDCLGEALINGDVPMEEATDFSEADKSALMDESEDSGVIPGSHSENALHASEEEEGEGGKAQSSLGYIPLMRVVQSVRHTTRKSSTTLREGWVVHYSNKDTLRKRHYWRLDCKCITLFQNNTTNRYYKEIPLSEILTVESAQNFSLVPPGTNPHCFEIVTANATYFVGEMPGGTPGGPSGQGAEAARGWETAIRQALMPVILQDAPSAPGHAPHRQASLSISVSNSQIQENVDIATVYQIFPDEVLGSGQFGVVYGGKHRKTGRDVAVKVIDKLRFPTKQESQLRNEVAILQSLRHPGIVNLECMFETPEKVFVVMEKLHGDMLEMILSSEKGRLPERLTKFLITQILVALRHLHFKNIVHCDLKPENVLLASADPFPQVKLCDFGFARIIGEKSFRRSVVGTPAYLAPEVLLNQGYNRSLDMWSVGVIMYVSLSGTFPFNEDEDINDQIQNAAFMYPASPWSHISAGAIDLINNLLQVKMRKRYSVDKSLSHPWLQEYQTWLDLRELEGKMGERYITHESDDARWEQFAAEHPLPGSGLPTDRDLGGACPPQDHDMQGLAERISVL

[20] = molecular target: PIKFYVE (Homo sapiens (Human), UniProt Q9Y2I7); conditions: 10000 nM, read-out: Percent Control
[21] = molecular target: MINK (Homo sapiens (Human), UniProt Q8N4C8); conditions: 10000 nM, read-out: Percent Control
[22] = molecular target: MAP4K3 (Homo sapiens (Human), UniProt Q8IVH8); conditions: MAP4K3, 10000 nM; read-out: Percent Control
[23] = molecular target: PCTK1 (Homo sapiens (Human), UniProt Q00536); conditions: PCTK1, 10000 nM; read-out: Percent Control
Sequence of PCTK1 (Q00536 whole entry): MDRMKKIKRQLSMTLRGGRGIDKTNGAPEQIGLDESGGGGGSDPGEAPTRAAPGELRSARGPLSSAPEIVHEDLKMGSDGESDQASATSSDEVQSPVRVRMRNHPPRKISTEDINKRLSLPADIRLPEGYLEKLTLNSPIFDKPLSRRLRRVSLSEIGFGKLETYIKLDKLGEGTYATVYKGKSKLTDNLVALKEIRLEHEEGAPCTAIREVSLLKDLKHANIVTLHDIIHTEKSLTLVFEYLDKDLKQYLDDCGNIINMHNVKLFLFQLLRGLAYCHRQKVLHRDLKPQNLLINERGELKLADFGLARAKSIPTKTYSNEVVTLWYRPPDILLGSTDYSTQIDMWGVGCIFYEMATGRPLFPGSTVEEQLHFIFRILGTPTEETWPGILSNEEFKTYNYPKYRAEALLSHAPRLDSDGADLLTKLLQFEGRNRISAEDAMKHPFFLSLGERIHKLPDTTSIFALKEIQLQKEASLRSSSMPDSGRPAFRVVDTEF

[24] = molecular target: AKT1 (Homo sapiens (Human), UniProt P31749); conditions: AKT1, 10000 nM; read-out: Percent Control
[25] = molecular target: ROCK2 (Homo sapiens (Human), UniProt O75116); conditions: ROCK2, 10000 nM; read-out: Percent Control
[26] = molecular target: CAMK1G (Homo sapiens (Human), UniProt Q96NX5); conditions: 10000 nM, read-out: Percent Control
[27] = molecular target: GSK3B (Homo sapiens (Human), UniProt P49841); conditions: 10000 nM, read-out: Percent Control
[28] = molecular target: PIK3CB (Homo sapiens (Human), UniProt P42338); conditions: 10000 nM, read-out: Percent Control
[29] = test system: FLT3(ITD, D835V); conditions: 10000 nM
[30] = molecular target: ERK5 (Homo sapiens (Human), UniProt Q13164); conditions: ERK5, 10000 nM; read-out: Percent Control
[31] = molecular target: DAPK3 (Homo sapiens (Human), UniProt O43293); conditions: DAPK3, 10000 nM; read-out: Percent Control
Sequence of DAPK3 (O43293 whole entry): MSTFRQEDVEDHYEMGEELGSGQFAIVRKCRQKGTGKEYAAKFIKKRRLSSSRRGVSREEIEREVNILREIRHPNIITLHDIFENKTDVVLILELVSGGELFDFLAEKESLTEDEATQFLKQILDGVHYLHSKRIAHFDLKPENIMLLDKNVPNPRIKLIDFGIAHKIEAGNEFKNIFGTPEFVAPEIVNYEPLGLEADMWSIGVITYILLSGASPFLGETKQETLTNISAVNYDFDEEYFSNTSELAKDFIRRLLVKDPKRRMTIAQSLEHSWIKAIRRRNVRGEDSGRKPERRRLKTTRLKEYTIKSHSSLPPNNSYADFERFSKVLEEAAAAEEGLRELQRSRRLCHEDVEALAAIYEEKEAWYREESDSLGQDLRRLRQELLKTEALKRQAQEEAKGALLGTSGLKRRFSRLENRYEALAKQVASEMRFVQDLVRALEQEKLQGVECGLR

[32] = molecular target: EGFR(G719S) (Homo sapiens (Human), UniProt P00533, G719S); conditions: 10000 nM, read-out: Percent Control
[33] = molecular target: CAMKK2 (Homo sapiens (Human), UniProt Q96RR4); conditions: CAMKK2, 10000 nM; read-out: Percent Control
Sequence of CAMKK2 (Q96RR4 whole entry): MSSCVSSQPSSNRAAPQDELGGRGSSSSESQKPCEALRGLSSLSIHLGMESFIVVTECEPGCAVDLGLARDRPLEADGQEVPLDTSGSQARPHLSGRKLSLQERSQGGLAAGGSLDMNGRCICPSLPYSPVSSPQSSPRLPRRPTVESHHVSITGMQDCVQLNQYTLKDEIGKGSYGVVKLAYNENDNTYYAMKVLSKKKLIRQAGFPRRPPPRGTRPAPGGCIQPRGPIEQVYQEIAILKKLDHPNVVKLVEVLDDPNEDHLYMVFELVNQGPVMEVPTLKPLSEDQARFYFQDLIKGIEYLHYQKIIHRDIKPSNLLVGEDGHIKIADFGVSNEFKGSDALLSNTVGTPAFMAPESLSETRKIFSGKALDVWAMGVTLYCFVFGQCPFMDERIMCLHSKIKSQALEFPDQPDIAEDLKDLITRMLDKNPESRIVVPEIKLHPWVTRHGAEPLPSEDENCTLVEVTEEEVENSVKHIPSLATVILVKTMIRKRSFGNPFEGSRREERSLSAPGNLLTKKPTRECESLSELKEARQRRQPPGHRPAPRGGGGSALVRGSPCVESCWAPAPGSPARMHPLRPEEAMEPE

[34] = molecular target: PIK3CA(H1047Y) (Homo sapiens (Human), UniProt P42336, H1047Y); conditions: 10000 nM, read-out: Percent Control
Sequence of PIK3CA(H1047Y) (P42336 whole entry H1047Y): as the sequence (P42336 whole entry C420R) above, with R420C, H1047Y counted along it

[35] = molecular target: FLT3(K663Q) (Homo sapiens (Human), UniProt P36888, K663Q); conditions: 10000 nM, read-out: Percent Control

Sequence of p38-delta (O15264 whole entry): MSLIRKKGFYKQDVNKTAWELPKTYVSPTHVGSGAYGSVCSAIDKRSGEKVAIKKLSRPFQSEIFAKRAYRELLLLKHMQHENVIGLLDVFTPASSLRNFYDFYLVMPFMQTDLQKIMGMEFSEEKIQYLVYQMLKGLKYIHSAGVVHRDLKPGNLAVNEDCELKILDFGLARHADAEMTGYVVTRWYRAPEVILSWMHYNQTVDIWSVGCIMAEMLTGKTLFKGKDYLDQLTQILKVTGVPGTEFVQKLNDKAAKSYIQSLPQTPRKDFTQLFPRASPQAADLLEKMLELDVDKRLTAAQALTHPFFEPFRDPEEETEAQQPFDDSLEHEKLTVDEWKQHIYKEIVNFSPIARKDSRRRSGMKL

Row | Structure (SMILES) | remaining binding at 10 µM [1] [%] | remaining binding at 10 µM [2] [%] | remaining binding at 10 µM [3] [%] | remaining binding at 10 µM [4] [%] | remaining binding at 10 µM [5] [%] | remaining binding at 10 µM [6] [%] | remaining binding at 10 µM [7] [%] | remaining binding at 10 µM [8] [%] | remaining binding at 10 µM [9] [%] | remaining binding at 10 µM [10] [%] | remaining binding at 10 µM [11] [%] | remaining binding at 10 µM [12] [%] | remaining binding at 10 µM [13] [%] | remaining binding at 10 µM [14] [%] | remaining binding at 10 µM [15] [%] | remaining binding at 10 µM [16] [%] | remaining binding at 10 µM [17] [%] | remaining binding at 10 µM [18] [%] | remaining binding at 10 µM [19] [%] | remaining binding at 10 µM [20] [%] | further results
1 | COc1cc(N2CCC(N3CCN(C)CC3)CC2)ccc1Nc1ncc2c(n1)N(C)c1sc(C)nc1C(=O)N2 [Compound 3, 6-((2-methoxy-4-(4-(4-methylpiperazin-1-yl)piperidin-1-yl)phenyl)amino)-2,4-dimethyl-4,9-dihydro-10H-pyrimido[5,4-b]thiazolo[5,4-e][1,4]diazepin-10-one] | 82 | 20 | 87 | 79 | 99 | 78 | 80 | 100 | 86 | 93 | 85 | 77 | 72 | 90 | 94 | 86 | 4.2 | 100 | 72 | 98 | remaining binding at 10 µM [21]: 100%; remaining binding at 10 µM [22]: 100%; remaining binding at 10 µM [23]: 100%; remaining binding at 10 µM [24]: 89%; remaining binding at 10 µM [25]: 100%; remaining binding at 10 µM [26]: 74%; remaining binding at 10 µM [27]: 95%; remaining binding at 10 µM [28]: 97%; Percent Control [29]: 100%; remaining binding at 10 µM [30]: 80%; remaining binding at 10 µM [31]: 62%; remaining binding at 10 µM [32]: 48%; remaining binding at 10 µM [33]: 80%; remaining binding at 10 µM [34]: 91%; remaining binding at 10 µM [35]: 96%
2 | COc1cc(N2CCC(N3CCN(C)CC3)CC2)ccc1Nc1ncc2c(n1)N(C)c1sc(C)nc1C(=O)N2C [Compound 5, 6-((2-methoxy-4-(4-(4-methylpiperazin-1-yl)piperidin-1-yl)phenyl)amino)-2,4,9-trimethyl-4,9-dihydro-10H-pyrimido[5,4-b]thiazolo[5,4-e][1,4]diazepin-10-one] | 100 | 87 | 100 | 100 | 100 | 90 | 95 | 96 | 75 | 93 | 100 | 100 | 97 | 100 | 100 | 95 | 31 | 100 | 46 | 60 | remaining binding at 10 µM [21]: 100%; remaining binding at 10 µM [22]: 100%; remaining binding at 10 µM [23]: 100%; remaining binding at 10 µM [24]: 100%; remaining binding at 10 µM [25]: 100%; remaining binding at 10 µM [26]: 95%; remaining binding at 10 µM [27]: 99%; remaining binding at 10 µM [28]: 87%; Percent Control [29]: 100%; remaining binding at 10 µM [30]: 30%; remaining binding at 10 µM [31]: 97%; remaining binding at 10 µM [32]: 100%; remaining binding at 10 µM [33]: 88%; remaining binding at 10 µM [34]: 100%; remaining binding at 10 µM [35]: 96%
